One compound from patent US10166225B2, “Method for treating osteoporosis” (Exelixis, Inc., priority 2011, dated 2019) can be followed below.

The subject of this experiment is human osteoclasts. Briefly: Osteoclast activity assay (resorption index CTX/TRACP 5b). The format is cell-based. As for the experimental part:
In the second part, the culture medium of human osteoclasts was replaced by new medium at day 7, and the formed mature osteoclasts were cultured for an additional 3 days, allowing them to resorb bone. Compound 1 was added into the culture medium at day 7. […] C-terminal cross-linked telopeptides of type I collagen (CTX) were measured in the culture medium collected at day 10 to quantitate bone resorption during days 7-10. […] was measured at day 7 to quantitate osteoclast number before Compound 1 was added. The CTX values were divided by the […] values, resulting as a resorption index that indicates mean osteoclast activity. […] The objective of this study was to investigate the effects of Compound 1 selected by the Sponsor on differentiation and activity of human osteoclasts and mouse osteoblasts in vitro. The effects on osteoclasts were studied using a model where bone marrow-derived human osteoclast precursor cells are cultured on bovine bone slices for 7 days in conditions favouring osteoclast differentiation, and allowed to differentiate into bone-resorbing osteoclasts. After completion of osteoclast differentiation at day 7, the culture medium was removed and new culture medium favouring osteoclast activity was added into the wells. The mature osteoclasts were then cultured for an additional 3 days, allowing them to resorb bone. In the osteoclast differentiation assay, the test compounds and a reference inhibitor osteoprotegerin (OPG) were added into cultures at day 0. In the osteoclast activity assay, the test compounds and a reference inhibitor E64 were added into cultures at day 7. Seven concentrations in 8 replicates were tested in both assays. Tartrate-resistant acid phosphatase 5b activity ([…]) was measured from the culture medium collected at day 7 as an index of the number of osteoclasts formed in each well during the differentiation period. C-terminal cross-linked telopeptides of type I collagen (CTX) was measured from the culture medium collected at day 10 to quantitate bone resorption during days 7-10. A human osteoclast culture system was developed for use in this study where CD34+ osteoclast precursor cells derived from human bone marrow (Poietics® Human Osteoclast Precursors, Lonza, Walkersville, USA) are cultured on bovine bone slices in the presence of appropriate growth factors, including M-CSF and RANK-ligand ([…] et al. 2009). The cells are first allowed to differentiate into mature bone-resorbing osteoclasts, and the formed osteoclasts are then allowed to resorb bone. The test and reference compounds are added into the cell cultures at the beginning of the differentiation and/or the resorption period, and their effects on the differentiation and/or resorbing activity of osteoclasts are determined. Secreted […] is determined from the culture medium after the differentiation period using a commercially available method (BoneTRAPÒ, IDS Ltd, Boldon, UK). Secreted […] describes accurately the number of osteoclasts formed in each well during the differentiation period. CTX is determined from the culture medium after the resorption period using a commercially available method (CrossLapsÒ for cultures, IDS Ltd, Boldon, UK). CTX describes accurately the amount of bone collagen degradation products released into the culture medium in each well during the resorption period. […] In this study, human bone marrow-derived CD34+ stem cells (10000 cells/well) were suspended in culture medium and allowed to attach to bovine bone slices in 96-well tissue culture plates. The culture medium (containing 10% FBS, OCP BulletKit® Lonza, Walkersville, USA) was supplemented with appropriate amounts of important growth factors favoring osteoclast differentiation and activity, including M-CSF (33 ng/ml, OCP BulletKit® Lonza, Walkersville, USA) and RANK-ligand (66 ng/ml, OCP BulletKit® Lonza, Walkersville, USA) in 200 μl of medium. The cells were incubated in a CO2 incubator in humidified atmosphere of 95% air and 5% carbon dioxide at 37° C. […]

Take `COc1cc2nccc(Oc3ccc(NC(=O)C4(C(=O)Nc5ccc(F)cc5)CC4)cc3)c2cc1OC` [Compound 1, N-(4-{[6,7-bis(methyloxy)quinolin-4-yl]oxy}phenyl)-N′-(4-fluorophenyl)cyclopropane-1,1-dicarboxamide]: where the note is “Homo sapiens, Osteoclast, 0.004 μM Compound 1, read-out: CTX at Day 10 and TRACP 5b Activity at Day 7 (CTX/TRACP 5b), Percent Activity (%) Compared to BL”, the activity at 0.004 µM was 84%. Moreover, for the setting “Homo sapiens, Osteoclast, 0.012 μM Compound 1, read-out: CTX at Day 10 and TRACP 5b Activity at Day 7 (CTX/TRACP 5b), Percent Activity (%) Compared to BL”, the activity at 0.012 µM was 104%. Also, where the note is “Homo sapiens, Osteoclast, 0.037 μM Compound 1, read-out: CTX at Day 10 and TRACP 5b Activity at Day 7 (CTX/TRACP 5b), Percent Activity (%) Compared to BL”, the activity at 0.037 µM is 115%. For the setting “Homo sapiens, Osteoclast, 0.11 μM Compound 1, read-out: CTX at Day 10 and TRACP 5b Activity at Day 7 (CTX/TRACP 5b), Percent Activity (%) Compared to BL”, the activity at 0.11 µM came out at 107%. Also, under “Homo sapiens, Osteoclast, 0.33 μM Compound 1, read-out: CTX at Day 10 and TRACP 5b Activity at Day 7 (CTX/TRACP 5b), Percent Activity (%) Compared to BL”, the activity at 0.33 µM turned out to be 102%. Further, the activity at 1 µM (Homo sapiens, Osteoclast, 1.0 μM Compound 1, read-out: CTX at Day 10 and TRACP 5b Activity at Day 7 (CTX/TRACP 5b), Percent Activity (%) Compared to BL) was determined as 111%. In addition, where the note is “Homo sapiens, Osteoclast, 3.0 μM Compound 1, read-out: CTX at Day 10 and TRACP 5b Activity at Day 7 (CTX/TRACP 5b), Percent Activity (%) Compared to BL”, the activity at 3 µM was found to be 85%. For the setting “tested concentrations 0.004-3.0 μM”, the “effect on osteoclast resorption activity” value is “no effects”.
